Reference: PubChem BioAssay AID504903 (Southern Research Specialized Biocontainment Screening …, 2011)
Calls of active or inactive are those of the source. No rule for the calls is given here.

Experiments:
[1] = system: M. tuberculosis H37Rv growth in 7H9 medium; assay: M. tuberculosis growth inhibition, dose response, H37Rv, 7H9 media, purified and synthesized compounds, set 5 (AID 504903); settings: for IC50: measured here: M. tuberculosis growth IC50
[2] = as above; settings: M. tuberculosis H37Rv growth in 7H9 medium; at 100 µM (top of the series)

| Compound | IC90 [1] | IC50 [1] | growth inhibition [2] |
| --- | --- | --- | --- |
| CO[C@H]1/C=C/O[C@@]2(C)Oc3c(C)c(O)c4c(O)c(c(C=NN5CCN(C)CC5)c(O)c4c3C2=O)NC(=O)/C(C)=C\C=C\[C@H](C)[C@H](O)[C@@H](C)[C@@H](O)[C@@H](C)[C@H](OC(C)=O)[C@@H]1C | 10 nM | < 10 nM |  |
| Cc1cc(Br)ccc1NC(=O)c1cnc(N2CCN(c3ccccn3)CC2)c2ccccc12 | 6160 nM | 680 nM |  |
| Cc1ccc(NC(=O)CSc2nc3ccccc3c(=O)[nH]2)cc1Cl |  |  | -6.21% (inactive) |
| COC(=O)C(Nc1nc(SCC(=O)NC2CCCCC2)nc2ccccc12)c1ccccc1 (centres undefined) |  |  | 0.4% (inactive) |
| NC(=O)c1cnccn1 |  |  | 0.23% (inactive) |
| O=c1[nH]c(=S)[nH]c2ccccc12 |  |  | -4.57% (inactive) |
| COc1cccc(NC(=O)CSc2nc3c(c(=O)[nH]2)CCC3)c1 |  |  | -9.73% (inactive) |
| COc1ccc(NC(=O)CSc2nc3ccccc3c(=O)[nH]2)cc1 |  |  | 4.59% (inactive) |
| O=C(CSc1nc2c(c(=O)[nH]1)CCC2)NC1CCCCC1 | < 70 nM | < 40 nM |  |
| Cc1cc(=O)[nH]c(=S)[nH]1 |  |  | -8.51% (inactive) |
| Cc1[nH]c2ccccc2c1C(=O)COC(=O)c1ccc([N+](=O)[O-])s1 |  | > 50300 nM |  |
| NC[C@H]1O[C@H](O[C@H]2[C@H](O)[C@@H](O[C@H]3O[C@H](CO)[C@@H](O)[C@H](N)[C@H]3O)[C@H](N)C[C@@H]2N)[C@H](O)[C@@H](O)[C@@H]1O | 2360 nM | 1140 nM |  |
| CN1CCC(NC(=O)CSc2nc3ccccc3c(=O)[nH]2)CC1 |  |  | -7.75% (inactive) |
| Cc1ccc(NC(=O)COC(=O)CCc2c[nH]c3ccccc23)cc1[N+](=O)[O-] | 3590 nM | 860 nM |  |
| CC1CCN(C(=O)C2CCN(c3nnc(-n4cccc4)s3)CC2)CC1 | 4660 nM | 2550 nM |  |
| CCOc1ccc(-c2cc(C)[n+](CCc3ccc(OC)c(OC)c3)c(-c3ccc(OCC)cc3)c2)cc1 | 860 nM | 480 nM |  |
| CN(C(=O)CSc1nc2ccccc2c(=O)[nH]1)C1CCCCC1 |  |  | -0.89% (inactive) |
| CC(C)NC(=O)CSc1nc2ccccc2c(=O)[nH]1 | 18800 nM | 4770 nM |  |

| Compound | IC90 [1] | IC50 [1] | growth inhibition [2] |
| --- | --- | --- | --- |
| Cn1c(SCC(=O)NC2CCCCC2)nc2ccccc2c1=O |  |  | -10.1% (inactive) |
| Cc1nc(SCC(=O)NC2CCCCC2)[nH]c(=O)c1C | 230 nM | < 10 nM |  |
| Cc1nc(SCC(=O)N(C)c2ccccc2)[nH]c(=O)c1C |  |  | -9.88% (inactive) |
| O=C(CSc1ccccn1)NC1CCCCC1 |  | > 95800 nM |  |
| Cc1cccc(/C=C/C(=O)c2ccc([N+](=O)[O-])o2)c1 | 800 nM | 310 nM |  |
| Cc1[nH]c(=S)[nH]c(=O)c1C |  |  | -6.68% (inactive) |
| NC(=O)CSc1nc2ccccc2c(=O)[nH]1 |  |  | 3.23% (inactive) |
| Cc1nc(SCC(N)=O)[nH]c(=O)c1C |  |  | 1.58% (inactive) |
| c1ccc(/N=C2\N=C(Nc3ccccn3)c3ccccc32)nc1 | 1330 nM | 750 nM |  |
| CCC(Sc1nc2ccccc2c(=O)[nH]1)C(=O)Nc1cccc(OC)c1 (centres undefined) |  |  | -2.52% (inactive) |
| COC(=O)c1ccc(CNc2c(N3CCCC3)c(=O)c2=O)cc1 |  |  | 23.6% (inactive) |
| CNC(=O)CSc1nc2ccccc2c(=O)[nH]1 |  | 56200 nM |  |
| CC(C)N=c1cc2n(-c3ccc(Cl)cc3)c3ccccc3nc-2cc1Nc1ccc(Cl)cc1 | 310 nM | 10 nM |  |
| O=C(CSc1nc2ccccc2c(=O)[nH]1)NCc1ccc(Cl)cc1 | 980 nM | 440 nM |  |
| CC(C)CCNC(=O)CSc1nc2ccccc2c(=O)[nH]1 | 120 nM | < 60 nM |  |
| CCC(Sc1nc2ccccc2c(=O)[nH]1)C(=O)NC1CCCCC1 (centres undefined) |  |  | -1.65% (inactive) |
| CCSc1nc(C)c(C)c(=O)[nH]1 |  |  | -1.81% (inactive) |
